Data taken from publication PMC10424183, “Determination of Ligand-Binding Affinity (Kd) Using Transverse Relaxation Rate (R2) in the Ligand-Observed ^1H NMR Experiment and Applications to Fragment-Based Drug Discovery” (Journal of Medicinal Chemistry, 2023).
Read-outs that look alike come from different tables or passages of the source. Values belong to the compound of their own block, whether it stands above or below them.

Experiments:
BCL6 BTB [1] = molecular target: T1, BCL6 BTB (Homo sapiens, UniProt P41182); parameters: method as in PMID 36329085; conditions: SPR; read-out: Kd value from SPR assay (printed in the Ki column, footnote a); cited from earlier work
T1 construct: made in house

BCL6 BTB [2] = molecular target: T1, BCL6 BTB; test: R2KD ligand-observed 1H NMR assay (Kd from transverse relaxation rate R2); assay type: binding
Experimental: (§1) Four aqueous stock solutions were prepared in Eppendorf Safe-Lock tubes (Cat no. 0030120094) by manual pipetting: (1) ligand aqueous stock solution was prepared by adding 50 mM ligand DMSO-d6 solution to aqueous buffer; (2) dimethyl sulfoxide (DMSO) aqueous stock solution was prepared by adding the same volume of DMSO-d6 as ligand DMSO-d6 solution to aqueous buffer; (3) protein aqueous stock solution was prepared by adding protein solution to aqueous buffer; and (4) aqueous solution was the buffer used in the assay.
(§2) Samples were prepared on a Bruker SamplePro-Tube liquid handler by mixing different volume of the four aqueous stocks in 96-well microplates (Greiner 650201) and then transferred to 3 mm NMR tubes (Figure 2). 10 samples were prepared: samples 1–8 containing increasing ligand concentration (maintaining constant protein concentration); sample 9 and 10 containing only ligands at two different concentrations (protein absent). These two samples served as control samples to obtain the R2 values of free ligand. The final percentage of DMSO-d6 in all samples were identical to minimize possible impacts of DMSO-d6.
The R2 values of four aromatic ^1H-NMR signals (Figure 3B) were experimentally determined (Figure 3C) and (R2,obs – R2F) * LT values were calculated using Excel and used as y-axis values in Prism, while ligand concentrations were plotted as the x-axis values (Figure 3D). All four NMR peaks were used to fit a global Kd with non-linear regression using a customized equation (see Experimental Section), while α values were fitted as an individual parameter for each peak (Figure 3E) as α values differ depending on the individual proton’s environment. While it was possible to fit Kd values using individual NMR peaks and then average the values (Figure 3F), we found using a global fitting algorithm increased robustness of curve fitting and better accommodated outliers in the data. The goodness of fit was judged by 95% confidence interval (CI) (profile likelihood) values and R squared value. The global Kd obtained here is close to the Ki value (54 vs 50 μM) although from our accuracy study, the differences can be larger (see section “Assay Accuracy”).
NMR data were collected at 298 K on a Bruker AVANCE NEO 600 MHz spectrometer, equipped with 5 mm TCI CryoProbe using Bruker Topspin 4.0. The T2 relaxation experiment was acquired using pulse program CPMG with 3-9-19 pulse sequence with gradients incorporated to suppress the water signal.[22] Extra water suppression was achieved by adding presaturation during D1. The spin-echo period (delay-180°-delay) was set to 1 msec (d20 is 500 μs), and the relaxation delay (d1) was set to 10 s. The pseudo-2D experiment contained nine slices with spin-echo period repeated the following times: 4, 20, 100, 200, 300, 500, 700, 1000, and 2000. The T2 relaxation experiment was processed using MestReNova 14.1, and Data Analysis Module of MestReNova was used to obtain integrals of individual ^1H-NMR signals, which were used to calculate R2 with equation I = I0exp (−tR2).
Nonlinear regression analysis was carried out using GraphPad Prism 9.2.0. Equation 12 was defined in user-defined equations as: Y = 0.5α*((X + Kd + P) −sqrt((sqr(X + Kd + P)) – 4*P*X)) where Y was calculated from eq 13 and X is the total ligand concentration. Three parameters: P, α, and Kd were in the equation with the initial value set at 1. In the default constraints setting, P was “constant equal to” the total protein concentration, Kd was “shared value for all data sets”, and α was “must be greater than […]”. CIs of parameters was calculated at 95% level using Asymmetrical (Profile-likelihood) CI.

BCL6 BTB domain = molecular target: BCL6 BTB domain; parameters: method as in PMID 35657291; conditions: known Ki from TR-FRET binding assay; cited from earlier work
ERAP1 [3] = molecular target: T2, ERAP1 (Homo sapiens, UniProt Q9NZ08); test: R2KD ligand-observed 1H NMR assay (Kd from transverse relaxation rate R2); assay type: binding; conditions: repeated three times (average)
T2 construct: made in house
Experimental: as §1
as §2, with “The final percentage of DMSO-d6 in all samples were identical to minimize possible impacts of DMSO-d6.” left out
Nonlinear regression analysis was carried out using GraphPad Prism 9.2.0. Equation 12 was defined in user-defined equations as: Y = 0.5α*((X + Kd + P) −sqrt((sqr(X + Kd + P)) – 4*P*X)) where Y was calculated from eq 13 and X is the total ligand concentration. […] CIs of parameters was calculated at 95% level using Asymmetrical (Profile-likelihood) CI.

ERAP1 [4] = molecular target: T2, ERAP1; parameters: method as in PMID 31841350; conditions: known Ki from biochemical binding assay; cited from earlier work
[5] = R2KD assay, repeated three times (average), read-out: Kd

T2 sequence (Q9NZ08 whole entry, species assumed): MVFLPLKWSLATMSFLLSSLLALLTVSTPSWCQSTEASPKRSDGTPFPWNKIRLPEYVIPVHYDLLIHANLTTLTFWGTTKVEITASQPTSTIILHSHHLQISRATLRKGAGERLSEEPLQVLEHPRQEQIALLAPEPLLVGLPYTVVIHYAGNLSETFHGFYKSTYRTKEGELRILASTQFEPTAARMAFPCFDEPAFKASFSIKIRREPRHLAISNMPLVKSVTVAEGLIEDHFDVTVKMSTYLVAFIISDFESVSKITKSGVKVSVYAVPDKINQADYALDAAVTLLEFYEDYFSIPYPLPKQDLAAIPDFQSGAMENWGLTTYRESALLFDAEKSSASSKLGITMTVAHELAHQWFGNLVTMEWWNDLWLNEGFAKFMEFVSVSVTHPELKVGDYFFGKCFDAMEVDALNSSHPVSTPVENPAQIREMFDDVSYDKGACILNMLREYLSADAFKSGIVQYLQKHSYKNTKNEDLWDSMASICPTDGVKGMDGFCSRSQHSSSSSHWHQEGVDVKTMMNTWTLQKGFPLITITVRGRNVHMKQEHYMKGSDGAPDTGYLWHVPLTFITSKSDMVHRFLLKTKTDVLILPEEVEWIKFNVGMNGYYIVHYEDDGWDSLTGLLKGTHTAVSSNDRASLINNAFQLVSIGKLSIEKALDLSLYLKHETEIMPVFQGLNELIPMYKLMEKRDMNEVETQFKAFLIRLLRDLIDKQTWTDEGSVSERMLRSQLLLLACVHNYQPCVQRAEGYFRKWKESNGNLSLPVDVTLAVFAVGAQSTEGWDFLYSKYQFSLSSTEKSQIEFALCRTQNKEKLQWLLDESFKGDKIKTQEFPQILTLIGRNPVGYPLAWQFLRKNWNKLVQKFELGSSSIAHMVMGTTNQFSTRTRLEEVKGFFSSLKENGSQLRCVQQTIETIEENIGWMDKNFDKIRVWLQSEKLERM

Kd (BCL6 BTB [2]; R2KD assay upper detection limit example, read-out: largest Kd determined accurately): ~1000 µM
Kd (BCL6 BTB [2]; [5]): 1050 µM
Kd (BCL6 BTB [2]; single experiment, four peaks, global Kd fitting, unit inferred, read-out: Kd, global (shared) fit): 905 µM
Compound: Cc1cc(Nc2ccc(F)cc2)n2ncnc2n1 [CCT040036]
Kd (BCL6 BTB [1]): 1500 µM

Kd (BCL6 BTB [2]; 5 μM BCL6, average of Peaks 1-4, unit inferred, read-out: Kd, average of individual peak fits): 61 µM
Kd (BCL6 BTB [2]; 5 μM BCL6, individual peak fit, unit inferred, read-out: Kd fitted using individual peak, Peak 1): 55 µM
Kd (BCL6 BTB [2]; 5 μM BCL6, individual peak fit, unit inferred, read-out: Kd fitted using individual peak, Peak 2): 53 µM
Kd (BCL6 BTB [2]; 5 μM BCL6, individual peak fit, unit inferred, read-out: Kd fitted using individual peak, Peak 3): 78 µM
Kd (BCL6 BTB [2]; 5 μM BCL6, individual peak fit, unit inferred, read-out: Kd fitted using individual peak, Peak 4): 56 µM
Kd (BCL6 BTB [2]; 5 μM protein, peak 3, read-out: Kd at 5 μM protein): 70 µM
Kd (BCL6 BTB [2]; 25 μM protein, peak 3, read-out: Kd at 25 μM protein): 58 µM
Kd (BCL6 BTB [2]; 35 μM protein, peak 3, read-out: Kd at 35 μM protein): 71 µM
Kd (BCL6 BTB [2]; [5]): 51 µM
Kd (BCL6 BTB [2]; ligand concentration increasing to 500 μM, no solubility limit, read-out: Kd, data set B): 68 µM
Kd of data set A relative to data set B (BCL6 BTB [2]; limited solubility mimic versus full concentration series): around 10 fold
Kd (BCL6 BTB [2]; simplified graphical presentation, unit inferred, read-out: KD, curve fitting using calculated bound ligand concentration [PL]): 57 µM
Kd (BCL6 BTB [2]; single experiment, 5 μM BCL6, ligand 50-500 μM, four aromatic peaks, global Kd fitting, read-out: Kd, global (shared) fit): 54 µM
Compound: Cc1nccc(Nc2cnn(CCO)c2)c1C#N [CCT365133]
Ki (BCL6 BTB domain): 50 µM

Kd (BCL6 BTB [2]; [5]): 7 µM
Compound: CC[C@H](O)Cn1c(=O)n(C)c2ccc(Nc3ccnc(Cl)c3C#N)cc21 [CCT367090]
Ki (BCL6 BTB domain): 4 µM

Kd (ERAP1 [3]): 196 µM
Compound: O=C(O)c1cccc(S(=O)(=O)Nc2ccccc2N2CCCCC2)c1 [CCT369304]
Ki (ERAP1 [4]): 33 µM
